Measured values taken from patent US6955921B2, “Trypsin substrate and diagnostic device, and method of using same” (Bayer Corporation, priority 2001, dated 2005).
Values joined by “and” are separate entries in the source; they are usually repeats but may differ in a detail not shown here. Identical values can stand only once. Blank lines part the entries; values can stand above or below the compound they belong to.

Columns and labels:
[1] = target: T1, Bovine Pancreatic Trypsin (Bos taurus, UniProt P00760); experiment: Dry-phase analytical element (reagent strip) for UTI measurement, decode from reflectance; format: biochemical; conditions: reflectance at 15 and 60 seconds; for decode, Negative Sample: Negative Sample = Water, substrate 1.25 mM in second dip; for decode, Positive Sample: Positive Sample = Water with 200 IU/mL urine trypsin inhibitor (ulinastatin)
T1 construct: purchased Calbiochem 6502; host or cells: bovine pancreas
T1 sequence (P00760 24-246): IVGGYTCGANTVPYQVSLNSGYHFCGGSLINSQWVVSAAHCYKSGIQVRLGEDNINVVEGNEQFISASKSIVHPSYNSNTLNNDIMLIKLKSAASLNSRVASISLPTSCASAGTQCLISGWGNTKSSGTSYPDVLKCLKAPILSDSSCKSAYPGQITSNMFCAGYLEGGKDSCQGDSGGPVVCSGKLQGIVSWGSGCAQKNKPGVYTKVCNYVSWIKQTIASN
Protocol: Reagent strips were made according to the following procedure: Filter paper (240 C grade from Ahlstrom Inc.) was saturated with the first dip solution and dried for 2 minutes at 80° C. and 4 minutes at 60° C. The resultant paper was then saturated with the second dip solution and dried for 6 minutes at 50° C. to form the completed reagent paper. Adhesive ([…] from 3M Inc.) was applied to the reagent paper and it was affixed to a polystyrene handle in the form of pads, which were 0.20 inch×0.20 inches square. A. Composition of the First Dip: • a. Water • b. Bicine Buffer (600 mM) • c. Ethylene glycol bis (β-aminoethyl ether) N,N,N',N'-tetra-acetic acid (EGTA) (5.1 mM) • d. Plasdone (PVP K30 from Sigma-Aldrich) (1.75% by weight) • e. MgSO4 (660 mM) • f. Bovine Pancreatic Trypsin (Calbiochem Cat. No. 6502) (272 units/mL) • g. Adjust to pH 8.00±0.02 with 1N NaOH. B. Composition of the Second Dip: • a. Acetone • b. […] KOK-10071 polymer (from Bayer Corporation) (0.1% by weight) Data were obtained by dipping the strips into the samples set out in Table 1 and placing them in a […] 50 spectrometer from Bayer Diagnostics to collect data at 15 and 60 seconds after dipping. Decode values were calculated using the equation: decode={[(B15+G15)-(B60+G60)]/(B15+G15)}*1000 Where: • B15 is the reflectance of the blue wavelength at 15 seconds, • B60 is the reflectance of the blue wavelength at 60 seconds, • G15 is the reflectance of the green wavelength at 15 seconds, and • […] is the reflectance of the green wavelength at 60 seconds.

[2] = target: T1, Bovine Pancreatic Trypsin; experiment: Dry-phase analytical element for trypsin detection, colour with MMBD diazonium salt; format: biochemical; conditions: within one minute
Protocol: (§1) Reagent strips were made according to the following procedure: Filter paper (240 C grade from Ahlstrom Inc.) was saturated with the first dip solution and dried at ambient temperature for 2 hours, then at 110° C. for 5 minutes. The resultant paper was saturated with the second dip solution and dried for about 1 minute at 60° C. to form the completed, white reagent paper. The paper was then cut into pads, which were 0.25 inch×0.25 inches square.
(§2) A. Composition of the First Dip:
• a. Water (25.0 mL) • b. Ethylene glycol bis (β-aminoethyl ether) N,N,N′,N′-tetra-acetic acid (EGTA) (0.06 g) • c. Plasdone (PVP K30 from Sigma-Aldrich) (0.438 g) • d. MgSO4 (1.08 g) B. Composition of the Second Dip: • a. Acetone (7.75 mL) • b. Example 3 trypsin substrate (4-(Nα-tosyl-NG-nitro-L-argininyloxy)-2-phenyl-5H-thiazole, 3.1 mg) • c. 2-Methoxy-4-morpholinobenzene diazonium chloride, zinc chloride double salt (MMBD) (diazonium coupling agent) (2.5 mg)
(§3) Identical pads were separately wetted with 25 μL portions of two different test solutions. One test solution was 50 mM pH=8 phosphate buffer (control solution) and the second was 50 mM pH=8 phosphate buffer containing 10,000 U/mL of bovine pancreatic trypsin (test solution).

trypsin = target: T2, trypsin (Bos taurus, UniProt P00760); experiment: Modified liquid assay with reagent pads, rate of fluorescent emission increase; format: biochemical, bovine; conditions: pH=7 buffer, excitation 335 nm
T2 sequence (P00760 24-246): T1 sequence (P00760 24-246)
Protocol: Trypsin concentrations may be instrumentally determined with the reagent pads in a modified liquid assay. Three reagent pads are extracted with 2.0 mL of 50 mM pH=7 buffer containing 0-20 u/mL of trypsin. Fluorescent emission at 385 nm is measured with a Perkin-Elmer Model LS-5 fluorescence spectrophotometer using excitation at 335 nm, and is reported in luminescence units (LU). The rate of increase of emission at 385 nm was determined graphically from the plot of LU vs. time output by the instrument.

[3] = target: T1, Bovine Pancreatic Trypsin; experiment: Dry-phase analytical element for trypsin detection, fluorescence under 365 nm UV; format: biochemical; conditions: within one minute
Protocol: as §1, §2
• a. Water (24.55 mL) • b. Ethylene glycol bis (β-aminoethyl ether) N,N,N′,N′-tetra-acetic acid (EGTA) (0.06 g) • c. Plasdone (PVP K30 from Sigma-Aldrich) (0.876 g) • d. MgSO4 (1.08 g) B. Composition of the Second Dip: • a. Acetone (9.3 mL) • b. Acetic acid (0.108 mL) • c. Example 5 trypsin substrate (7-(Nα-tosyl-NG-nitro-L-argininyloxy)-4-methylcoumarin, 5.0 mg)
as §3, with “solutions and viewed under long wavelength (365 nm) ultraviolet light illumination.” for “solutions.”, “pH=7” for “pH=8”

Structure (SMILES): Cc1ccc(S(=O)(=O)N[C@@H](CCCNC(N)=N[N+](=O)[O-])C(=O)Oc2c[nH]c(-c3ccccc3)c2)cc1 [Example 1, 3-(Nα-tosyl-NG-nitro-L-argininyloxy)-5-phenylpyrrole]
decode, Negative Sample [1]: 474
decode, Positive Sample [1]: 212

Structure (SMILES): Cc1ccc(S(=O)(=O)NC(CCCN=C(N)N[N+](=O)[O-])C(=O)Oc2c[nH]c3ccccc23)cc1 [Example 2, 3-(Nα-tosyl-NG-nitro-L-argininyloxy)indole]
decode, Negative Sample [1]: 422
decode, Positive Sample [1]: 168

Structure (SMILES): Cc1ccc(S(=O)(=O)N[C@@H](CCCNC(N)=N[N+](=O)[O-])C(=O)Oc2csc(-c3ccccc3)n2)cc1 [Example 3, 4-(Nα-tosyl-NG-nitro-L-argininyloxy)-2-phenyl-5H-thiazole]
pad colour, test solution ([2]; 50 mM pH=8 phosphate buffer containing 10,000 U/mL bovine pancreatic trypsin): turned blue
pad colour, control solution ([2]; 50 mM pH=8 phosphate buffer without trypsin): remained white

decode, Negative Sample [1]: 61
decode, Positive Sample [1]: 30
Structure (SMILES): Cc1ccc(S(=O)(=O)N=C(N)NCCC[C@H](NS(=O)(=O)c2ccc(C)cc2)C(=O)Oc2c[nH]c(-c3ccccc3)c2)cc1 [Example 4, 3-(Nα-tosyl-NG-tosyl-L-argininyloxy)-5-phenylpyrrole]

Structure (SMILES): Cc1ccc(S(=O)(=O)N[C@@H](CCCNC(=N)N[N+](=O)[O-])C(=O)Oc2ccc3c(C)cc(=O)oc3c2)cc1 [Example 5, 7-(Nα-tosyl-NG-nitro-L-argininyloxy)-4-methylcoumarin]
Rate of 385 nm emission increase (trypsin; Trypsin concentration 0 U/mL): 0.36 LU/mm
Rate of 385 nm emission increase (trypsin; Trypsin concentration 5 U/mL): 1.21 LU/mm and 2.35 LU/mm
Rate of 385 nm emission increase (trypsin; Trypsin concentration 10 U/mL): 2.38 LU/mm and 2.08 LU/mm
Rate of 385 nm emission increase (trypsin; Trypsin concentration 20 U/mL): 3.75 LU/mm
pad fluorescence, test solution ([3]; 50 mM pH=7 phosphate buffer containing 10,000 U/mL bovine pancreatic trypsin): fluorescing brightly
pad fluorescence, control solution ([3]; 50 mM pH=7 phosphate buffer without trypsin): remained dull and non-fluorescent
